Laboratory results published in US20140024663A1, “ATB(0,+) AMINO ACID TRANSPORTER AS A DRUG TARGET FOR TREATMENT OF ESTROGEN RECEPTOR-POSITIVE BREAST CANCER” (GEORGIA HEALTH SCIENCES UNIVERSITY RESEARCH INSTITUTE, INC., priority 2012, published 2014).

Assays:
Format in all cases: cell-based, human
[1] = system: MCF10A cells; experiment: ASNS and CHOP mRNA by RT-PCR as readout for amino acid deprivation; conditions: SLC6A14-negative MCF10A, α-MT 2.5 mM, 24, 48 or 72 h
Protocol: (§1) FIGS. 6A to 6C. Effects of SLC6A14 blockade with α-MT in breast cancer cells. In FIG. 6A, MCF10A (a non-malignant mammary epithelial cell line), MCF7 (an ER-positive breast cancer cell line), and MB231 (an ER-negative breast cancer cell line) cells were treated with or without 2.5 mM α-MT for 24, 48, or 72 h and then used for analysis of asparagine synthetase (ASNS) and CHOP mRNA levels. In FIG. 6B, MCF7, MB231 and MCF10A cells were treated with or without 2.5 mM α-MT for 48 h and then used for immunocytochemical analysis of the constitutively expressed LC-3. In FIG. 6C, MCF7 cells were treated with (“b” and “c”) or without (“a”) α-MT (2.5 mM) for 48 h and then used for electron microscopy. Arrows indicate sequestration of cytoplasm and organelles in pre-autophagosomes and autophagosome, and the asterisk indicates condensed chromatin. N, nucleus.
(§2) RT-PCR. Total RNA was isolated using TRIZOL™ (Invitrogen). 2 μg of RNA was reverse transcribed using the GeneAmp PCR System (Applied Biosystems, Branchburg, N.J.). PCR reaction was performed under optimal conditions specific for each of the primer pairs. GAPDH (glyceraldehyde-3-phosphate dehydrogenase) or HPRT1 (hypoxanthine/guanine phosphoribosyl transferase-1) were used as internal controls. PCR products were size-fractionated on agarose gel, stained with ethidium bromide and imaged using Alpha Imager (Santa Clara, Calif.). […]

[2] = system: MB231 cells; experiment: as above; conditions: SLC6A14-negative MB231, α-MT 2.5 mM, 24, 48 or 72 h
Protocol: as §1, §2

[3] = system: MCF7 cells; experiment: as above
Protocol: FIGS. 6A to 6C. Effects of SLC6A14 blockade with α-MT in breast cancer cells. In FIG. 6A, MCF10A (a non-malignant mammary epithelial cell line), MCF7 (an ER-positive breast cancer cell line), and MB231 (an ER-negative breast cancer cell line) cells were treated with or without 2.5 mM α-MT for 24, 48, or 72 h and then used for analysis of asparagine synthetase (ASNS) and CHOP mRNA levels. In FIG. 6B, MCF7, MB231 and MCF10A cells were treated with or without 2.5 mM α-MT for 48 h and then used for immunocytochemical analysis of the constitutively expressed LC-3. In FIG. 6C, MCF7 cells were treated with (“b” and “c”) or without (“a”) α-MT (2.5 mM) for 48 h and then used for electron microscopy. Arrows indicate sequestration of cytoplasm and organelles in pre-autophagosomes and autophagosome, and the asterisk indicates condensed chromatin. N, nucleus. FIGS. 8A and 8B. Influence of α-MT on ASNS and CHOP mRNA levels in control MCF7 cells and in MCF7 cells with shRNA-induced silencing of SLC6A14. In FIG. 8A, five different SLC6A14-specific shRNAs were tested in MCF7 cells using a lentivirus-based system to monitor their efficacy to silence SLC6A14. SLC6A14 mRNA levels were measured by RT-PCR with GAPDH as an internal control. c, control. In FIG. 8B, SLC6A14 was silenced in MCF7 cells with shRNA-4 using a lentivirus-based system and then treated without or with α-MT (2.5 mM, 48 h). RNA isolated from the cells was then used for RT-PCR to monitor the levels of asparagine synthetase (ASNS) and CHOP mRNAs. FIG. 11. Estrogen-dependent suppression of the efficacy of α-MT to induce ASNS and CHOP expression in MCF7 cells. MCF7 cells were cultured in a phenol red-free medium in the absence or presence of estradiol (E2, 10 nM) for 24 h and then treated without or with α-MT (2.5 mM, 24 h). The cells were then used for analysis of SLC6A14, asparagine synthetase (ASNS), and CHOP mRNA levels by RT-PCR. Hypoxanthine/guanine phosphoribosyltransferase-1 (HPRT1) mRNA levels were used as an internal control. RT-PCR. Total RNA was isolated using TRIZOL™ (Invitrogen). 2 μg of RNA was reverse transcribed using the GeneAmp PCR System (Applied Biosystems, Branchburg, N.J.). PCR reaction was performed under optimal conditions specific for each of the primer pairs. GAPDH (glyceraldehyde-3-phosphate dehydrogenase) or HPRT1 (hypoxanthine/guanine phosphoribosyl transferase-1) were used as internal controls. PCR products were size-fractionated on agarose gel, stained with ethidium bromide and imaged using Alpha Imager (Santa Clara, Calif.). Densitometry was performed on PCR bands and normalized to the internal control. Normalized values were used to compare mRNA levels of target genes. Primers used for PCR were as follows.

[4] = system: MCF7 cells; experiment: Western blot of lamin A degradation product (caspase-6 substrate); conditions: MCF7, α-MT 2.5 mM, 24, 48 or 72 h
Protocol: (§3) FIGS. 9A to 9D. Influence of α-MT on mTOR activity In FIG. 9A, MCF7 and MB231 cells were treated without or with α-MT (2.5 mM) for 24 h, 48 h, or 72 h, and then the cell lysates were used for western blot. Influence of α-MT with or without 3-MA on cell death. In FIG. 9B, MCF7, MB231, and MCF10A cells were treated for 48 h without or with α-MT (2.5 mM), 3-MA (10 mM), or α-MT (2.5 mM) plus 3-MA (10 mM), and then analyzed for cell death by propidium iodide (PI) staining and FACS-based cell cycle analysis. In FIG. 9C, MCF7 cells were treated for 48 h without or with α-MT (2.5 mM), 3-MA (10 mM), or α-MT (2.5 mM) plus 3-MA (10 mM), and then analyzed for apoptotic cell death by annexin V labeling. In FIG. 9D, MCF7 and MB231 cells were treated without or with 2.5 mM α-MT for 24 h, 48 h, or 72 h. Cell lysates were then used for western blot analysis of lamin A degradation product using an antibody that recognizes specifically the proteolytic cleavage product. β-Actin was used as an internal control.

[5] = system: MB231 cells; experiment: as above; conditions: SLC6A14-negative MB231 cells, α-MT 2.5 mM, identical conditions
Protocol: as §3

## CC(N)(Cc1c[nH]c2ccccc12)C(=O)O (racemic) [α-MT, α-methyl-DL-tryptophan]
[1]
  levels of asparagine synthetase mRNA and CHOP mRNA: not
[2]
  levels of asparagine synthetase mRNA and CHOP mRNA: not
[3]; MCF7, α-MT 2.5 mM, 24, 48 or 72 h
  levels of asparagine synthetase mRNA and CHOP mRNA: increased
[3]; MCF7 cells transfected with vector carrying shRNA #4 (SLC6A14 silenced), α-MT 2.5 mM, 48 h
  α-MT-induced increase of asparagine synthetase and CHOP expression: markedly attenuated
[3]; MCF7 cells treated with estradiol 10 nM, phenol red-free medium, α-MT 2.5 mM, 24 h
  magnitude of α-MT-induced asparagine synthetase and CHOP expression: significantly reduced
[3]; MCF7 control cells transfected with empty vector, α-MT 2.5 mM, 48 h
  expression levels of asparagine synthetase and CHOP: increased
[3]; MCF7 control cells, phenol red-free medium, absence of estradiol, α-MT 2.5 mM, 24 h
  expression of asparagine synthetase and CHOP: induced the expression
[4]
  apoptotic cell death shown by Lamin A cleavage: cleavage of Lamin A
[5]
  apoptosis (Lamin A cleavage): no evidence of apoptosis
